Measured values as given in US20220031641A1, “COMPOSITIONS AND METHODS FOR TREATING AND PREVENTING COGNITIVE DYSFUNCTION” (Pharmatrophix, Inc., priority 2019, published 2022).
Read-outs that look alike come from different tables or passages of the source.

Columns and labels:
P6-8 mouse OPCs [1] = assay: OPC proliferation index (EdU+/PDGFRa+) in cultures of murine OPCs; assay type: cell-based; conditions: 24-hour exposure; 0-1000 nM concentration range
Text: (§1) Cells were fixed at day 100 following induction and the percent of DAPI+ cells expressing the OPC marker PDGFRa was quantified. […] Green=PDGFRa, white=DAPI. Scale bar=10 μm. […] Cells were fixed at day 100 following induction and the percent of DAPI+ cells expressing the mature oligodendrocyte marker MBP was quantified. […] Red=MBP, white=DAPI. Scale bar=10 μm. […] White-dashed circle=lesioned area in the corpus callosum. Scale bar=20 μm. […] FIG. 5K-FIG. 5M show representative confocal images of proliferating OPCs as shown by EdU incorporation into PDGFRa+ cells in mouse OPC cultures treated with vehicle control (FIG. 5K), 50 nM BDNF (FIG. 5L) and 100 nM LM22A-4 (FIG. 5M).
(§2) Thus, to therapeutically manipulate BDNF-TrkB signaling to promote oligodendrogenesis, we tested a small molecule TrkB partial agonist, LM22A-4. […] To determine if LM22A-4 could promote OPC proliferation and differentiation in a manner similar to BDNF, we compared the effects of recombinant BDNF, LM22A-4 or vehicle control in cultures of murine OPCs.

P6-8 mouse OPCs [2] = assay: Oligodendroglial differentiation (CC1+ cells) in murine OPC cultures; assay type: cell-based; conditions: seven-day exposure; BDNF 50 nM, LM22A-4 100 nM daily
Text: as §1, §2

human iPSC-derived OPCs = assay: In vitro oligodendrogenesis in human iPSC-derived OPCs (PDGFRa+, MBP+ cells); assay type: cell-based; conditions: day 25-35 of OPC induction; 20 ng/ml BDNF or 1000 nM LM22A-4; fixed at day 100
Text: as §1, §2

[3] = tested on: lysolecithin-induced demyelination in the corpus callosum; assay: Lysolecithin demyelination model, OPC proliferation and oligodendrogenesis in corpus callosum lesion; assay type: in vivo, mouse
Text: as §1
To investigate the effects of LM22A-4 treatment on OPC proliferation and oligodendrogenesis in vivo, we next examined mice treated with either LM22A-4 or vehicle control in a well-established demyelination model. Stereotaxic injection of lysolecithin into white matter regions causes a focal, toxic, demyelinating injury; this leads to microglial activation and demyelination, followed by OPC proliferation, recruitment and migration into the lesion area. […]

[4] = assay type: in vivo, mouse; conditions: LM22A-4 50 mg/kg i.p. daily P38-P62, tested P63
Protocol: (§3) A single point indicates the g-ratio for a single axon. Approximately 100 axons were quantified and the mean g-ratio determined for each mouse. P-values (indicated on plots) were determined by a Student's t-test, comparing the mean g-ratio on a per mouse basis between groups. […] At P63, the Novel Object Recognition Test was performed in mice previously exposed to MTX chemotherapy or PBS vehicle control and later treated with LM22A-4 or vehicle control. Percent preference for novel object was measured as the percent time spent with novel object over the total time spent with either object (n=4 mice in each group). Statistical significance was determined by a one-sample t-test, where the average percent preference for the novel object for each group was measured against a hypothetical value of 50% chance an animal would interact with either object. […] Scale bars=2 μm. FIG. 6F-FIG. 6G show myelin microstructure data shown in FIG. 6C are shown as scatterplots of g-ratio as a function of axon caliber. […] LM22A-4 increases myelin sheath thickness in control mice. […] LM22A-4 rescues myelin deficits in mice exposed to juvenile MTX in small caliber axons (<0.5 μm; n=7 mice, p=0.005), medium caliber axons (0.5 μm-1.0 μm; n=7, p=0.006) and large caliber axons (>1.0 μm; n=7 mice; p=0.033) compared to mice exposed to MTX but treated with vehicle control. Data in FIG. 6A-FIG. 6E shown as mean±SEM, ns=p>0.05, * p<0.05, ** p<0.01 *** p<0.001 as determined by Student's t-test.
(§4) The chemotherapy-induced neurological syndrome is characterized by decreased attention and memory function and this is recapitulated in the MTX mouse model used here. To test the hypothesis that BDNF to TrkB signaling could promote myelination and improve cognitive dysfunction after chemotherapy exposure, mice were subjected to the above MTX chemotherapy protocol, then treated systemically with the TrkB partial agonist LM22A-4 (50 mg/kg i.p. daily, P38-P62, FIG. 6A) or vehicle control, and analyzed at 24 hours after the final injection (P63) for changes in myelin microstructure and behavioral performance in the novel object recognition test.
(§5) Myelin microstructure in the cingulum of the corpus callosum was examined by transmission electron microscopy. […] The myelin microstructural effects of LM22A-4 thus mimic activity-regulated changes in myelin microstructure, but would lack the circuit-specificity of the activity-regulated response. To test the influence of LM22A-4 on a behavioral measure of attention and memory function, the novel object recognition test was used. After brief introduction to two identical objects, mice are then exposed to one familiar object as well as a completely novel object after a time delay of 5-minutes. […] Treatment with LM22A-4 from P38-P62 rescues performance in the novel object recognition test in MTX treated mice as these mice spend a significant percentage of their time interacting with the novel object over the familiar object (MTX+vehicle: 47.94%±3.50%, p=0.5968 over 50%; PBS+vehicle: 63.37%±4.72%, p=0.0219 over 50%; MTX+LM22A-4: 62.81%±3.31%, p=0.0305 over 50%; PBS+LM22A-4: 68.93%±6.34%, p=0.0317 over 50%; FIG. 6E).

[5] = tested on: myelinated axons in the cingulum of the corpus callosum; assay type: in vivo, mouse; conditions: for g-ratio: LM22A-4 50 mg/kg i.p. daily P38-P62, analysed P63
Protocol: as §3, §4, §5

TrkB receptor = TrkB receptor (Homo sapiens, UniProt Q16620); conditions: previously shown; cited from earlier work
Chain of TrkB receptor (Q16620 32-822): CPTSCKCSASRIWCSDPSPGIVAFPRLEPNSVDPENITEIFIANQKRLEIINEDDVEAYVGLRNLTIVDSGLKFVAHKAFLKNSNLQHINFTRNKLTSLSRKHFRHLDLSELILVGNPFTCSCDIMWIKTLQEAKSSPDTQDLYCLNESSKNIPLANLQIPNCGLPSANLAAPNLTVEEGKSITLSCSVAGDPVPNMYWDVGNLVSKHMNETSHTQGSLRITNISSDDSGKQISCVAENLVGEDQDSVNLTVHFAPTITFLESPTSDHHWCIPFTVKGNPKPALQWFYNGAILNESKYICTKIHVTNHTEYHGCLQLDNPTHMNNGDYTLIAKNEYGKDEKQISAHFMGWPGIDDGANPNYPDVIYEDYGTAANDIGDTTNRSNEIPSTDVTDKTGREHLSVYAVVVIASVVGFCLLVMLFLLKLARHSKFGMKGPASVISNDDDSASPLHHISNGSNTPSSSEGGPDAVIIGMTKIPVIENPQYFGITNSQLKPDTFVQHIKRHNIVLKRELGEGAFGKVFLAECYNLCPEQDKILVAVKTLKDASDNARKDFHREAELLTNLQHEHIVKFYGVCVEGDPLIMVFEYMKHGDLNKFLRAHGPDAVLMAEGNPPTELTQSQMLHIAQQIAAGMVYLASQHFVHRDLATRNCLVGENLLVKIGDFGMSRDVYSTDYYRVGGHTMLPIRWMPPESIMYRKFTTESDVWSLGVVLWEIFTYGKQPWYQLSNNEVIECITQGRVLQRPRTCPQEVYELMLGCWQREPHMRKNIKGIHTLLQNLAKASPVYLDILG

BDNF protein = conditions: mouse, in vivo
[6] = tested on: OPCs in the corpus callosum; conditions: MTX at P21, 28, 35; one month (P63) and 6 months (P203) after cessation; cited from earlier work
[7] = BDNF protein; cited from earlier work

Molecule: O=C(NCCO)c1cc(C(=O)NCCO)cc(C(=O)NCCO)c1 [LM22A-4, N,N′,N″-tris(2-hydroxyethyl)-1,3,5-benzenetricarboxamide]
- proliferative index of OPCs (fraction of total cells in S phase, co-localization of PDGFRa with EdU) (P6-8 mouse OPCs [1]): similarly increased the proliferative index of OPCs in the low nanomolar range and in a dose-dependent manner
- oligodendroglial differentiation, cells expressing CC1 relative to vehicle control (P6-8 mouse OPCs [2]): similarly promoted oligodendroglial differentiation
- in vitro oligodendrogenesis in human oligodendroglial lineage cells (human iPSC-derived OPCs): similarly promote in vitro oligodendrogenesis
- density of EdU+/PDGFRa+ proliferating OPCs in lesioned area ([3]; 50 mg/kg i.p. for one week from day 7 after lysolecithin injection): 1132±67.1 cells/mm3
- density of EdU+/CC1+ newly generated mature oligodendrocytes in lesioned area ([3]; 50 mg/kg, day 7 to 21 following lysolecithin injury): 764.8±141.6 cells/mm3
- percent preference for novel object ([4]; MTX-exposed mice): 62.81%±3.31%
- percent preference for novel object ([4]; PBS-exposed mice): 68.93%±6.34%
- g-ratio ([5]; MTX-exposed mice (100 mg/kg i.p. P21, 28, 35)): 0.733±0.017
- myelin thickness by axon caliber ([5]; MTX-treated mice, small (<0.5 μm), medium (0.5-1.0 μm), large (>1.0 μm) caliber axons): increased myelin thickness in small, medium and large caliber axons
- g-ratio ([5]; PBS-exposed mice): 0.713±0.010
- TrkB receptor activation (TrkB receptor): activate the TrkB receptor specifically

Molecule: CN(Cc1cnc2nc(N)nc(N)c2n1)c1ccc(C(=O)N[C@@H](CCC(=O)O)C(=O)O)cc1 [MTX, methotrexate]
- corpus callosum BDNF protein levels (BDNF protein): 5350 ± 1740 pg/mL
- decrease in corpus callosum BDNF protein levels compared to PBS vehicle controls (BDNF protein): more than three-fold decrease
- OPCs in the corpus callosum after MTX exposure [6]: lasting reduction of OPCs in the corpus callosum

Molecule: BDNF: brain-derived neurotrophic factor, recombinant protein, ligand of TrkB
- proliferative index of OPCs (fraction of total cells in S phase, co-localization of PDGFRa with EdU) (P6-8 mouse OPCs [1]): increased the proliferative index
- oligodendroglial differentiation, cells expressing CC1 relative to vehicle control (P6-8 mouse OPCs [2]): similarly promoted oligodendroglial differentiation
- in vitro oligodendrogenesis in human oligodendroglial lineage cells (human iPSC-derived OPCs): similarly promote in vitro oligodendrogenesis

B1: BDNF: brain-derived neurotrophic factor, recombinant protein, ligand of TrkB (protein, UniProt P23560 19-247, looked up)
Neurotrophic factor BDNF …: APMKEANIRGQGGLAYPGVRTHGTLESVNGPKAGSRGLTSLADTFEHVIEELLDEDQKVRPNEENNKDADLYTSRVMLSSQVPLEPPLLFLLEEYKNYLDAANMSMRVRRHSDPARRGELSVCDSISEWVTAADKKTAVDMSGGTVTVLEKVPVSKGQLKQYFYETKCNPMGYTKEGCRGIDKRHWNSQCRTTQSYVRALTMDSKKRIGWRFIRIDTSCVCTLTIKRGR
- blood-brain-barrier penetration [7]: poor blood-brain-barrier penetration
- plasma half-life [7]: short plasma half-life
